This is an account of results in patent US20180228780A1, “3-(1H-PYRROLO[2,3-C]PYRIDIN-2-YL)-1H-INDAZOLES AND THERAPEUTIC USES THEREOF” (Samumed, LLC, priority 2015, published 2018).

Common to all, as to format: cell-based
One test deals with SW480 colon cancer cells. Nature of the test: Cell viability assay (CellTiter-Blue) in SW480 colon cancer cells. The note with it: Homo sapiens, 96 h; SW480 cell viability, four days incubation. The method, boiled down: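 Fluorescence from resazurin reduced to resorufin by metabolically active cells was the read-out, taken after ~3 h with CellTiter-Blue.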
A general note: The colour change of resazurin is a common sign of viable cells or microbes.

For another test, the system named is IL-6 (THP-1 cells). Nature of the test: IL-6 inhibition in THP-1 monocytes (HTRF). The note with it: Homo sapiens; for EC50: IL-6 inhibition, THP-1 cells, HTRF, 10-point dose-response starting from 10 μM. The method, boiled down:
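THP-1 cells serum-reduced (1% FBS, 24 h), plated 5000/well, stimulated with 500 ng/mL […] after 2 h and incubated a further 22 h at 37 °C. Secreted IL-6 quantified by HTRF (665/620 nm ratio), normalized to DMSO; EC50 from four-parameter fit, duplicates.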
For orientation: In TR-FRET formats the signal depends on donor and acceptor labels being close together.

Test [1] concerns primary human mesenchymal stem cells (hMSCs). Nature of the test: Induction of chondrogenesis in hMSCs (nodule imaging, Rhodamine B / Nile Red). The note with it: 6 days; for Emax: relative to TGF-β3 (10 ng/mL) positive control, read-out: Max. Activity as % TGF-β3 activity; for EC50: concentration required to induce 50% levels of chondrogenesis vs TGF-β3, read-out: Conc (nM) of 50% TGF-β3 activity. The method, boiled down:
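Primary hMSCs at passage 3-6 were treated with compound; nodule area per well was normalized to the mean of 3 DMSO wells, averaged over 2-3 replicates, and the concentration giving 50% chondrogenesis relative to TGF-β3 control, plus maximum activity and its dose, was derived.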

Test [2] concerns Wnt activity (Sp5-Luc reporter, SW480 colon carcinoma cells). Nature of the test: Screening assay for Wnt activity: Sp5-Luc reporter gene assay in SW480 cells. The settings on record: Homo sapiens; for EC50: SW480 Sp5-Luc reporter, overnight incubation. The method, boiled down:
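SW480 colon carcinoma cells stably carrying Sp5 promoter (eight TCF/LEF sites)-driven firefly luciferase, plated at 4,000 cells/well in 1% FBS medium and incubated overnight at 37° C. Luminescence normalised to DMSO-only cells; EC50 from four-parameter variable-slope nonlinear regression.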
On the technique in general: A reporter such as luciferase makes a cellular process visible.

Test [3] concerns Primary human fibroblasts derived from IPF patients (LL29 cells). Nature of the test: Inhibition of the fibrotic process: αSMA staining in TGF-β1-treated LL29 fibroblasts. The settings on record: Fibroblast, 96 h, LL29 cells, TGF-β1 20 ng/mL, 4 days, % αSMA-positive cells. The method, boiled down: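 LL29 IPF-patient lung fibroblasts plated in F12 with 1% FBS, treated with TGF-β1 plus compound; TGF-β1/DMSO wells served as controls. After 4 days incubation, SYTOX green (1 μM final) added for 30 min at room temperature; αSMA staining used as fibrosis read-out.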

Bounds are passed on as bounds.

With `COc1cncc(-c2ccc3[nH]nc(-c4cc5c(-c6ccsc6)cncc5[nH]4)c3c2)c1` [Compound 676, 5-(5-Methoxypyridin-3-yl)-3-(4-(thiophen-3-yl)-1H-pyrrolo[2,3-c]pyridin-2-yl)-1H-indazole], the EC50 with SW480 colon cancer cells is 0.51 µM; in the test with IL-6 (THP-1 cells), 2.58 µM; in test [2], 0.956 µM; in test [3] it was 0.434 µM. In test [1], the Emax amounted to 40%.
Consider `COc1cncc(-c2ccc3[nH]nc(-c4cc5c(-c6ccoc6)cncc5[nH]4)c3c2)c1` [Compound 692, 3-(4-(Furan-3-yl)-1H-pyrrolo[2,3-c]pyridin-2-yl)-5-(5-methoxypyridin-3-yl)-1H-indazole], for which the EC50 with SW480 colon cancer cells is 1.1 µM; with IL-6 (THP-1 cells) it was 8.27 µM; in test [1], 10 nM; in test [2], 2.2 µM; in test [3], 0.728 µM. The Emax in test [1] is 170%.
As to `CN(C)Cc1cncc(-c2cc(F)c3[nH]nc(-c4cc5c(-c6cccc(F)c6)cncc5[nH]4)c3c2)c1` [Compound 991, 1-(5-(7-Fluoro-3-(4-(3-fluorophenyl)-1H-pyrrolo[2,3-c]pyridin-2-yl)-1H-indazol-5-yl)pyridin-3-yl)-N,N-dimethylmethanamine], the EC50 with SW480 colon cancer cells worked out at 1.04 µM; in the test on IL-6 (THP-1 cells), 3.71 µM; in test [2] it was 3.71 µM; in test [3], 1.23 µM. The Emax in test [1] was 38%.
Turning to `CN(C)Cc1cncc(-c2cc3c(-c4cc5c(-c6cccc(F)c6)cncc5[nH]4)n[nH]c3cc2F)c1` [Compound 992, 1-(5-(6-Fluoro-3-(4-(3-fluorophenyl)-1H-pyrrolo[2,3-c]pyridin-2-yl)-1H-indazol-5-yl)pyridin-3-yl)-N,N-dimethylmethanamine], the EC50 in the test with SW480 colon cancer cells came out at 0.294 µM; in the test on IL-6 (THP-1 cells), 0.074 µM; in test [2], 0.96 µM; in test [3], 0.92 µM. Besides, in test [1], the Emax came out at 21%.
Regarding `CN(C)Cc1cncc(-c2ccc3[nH]nc(-c4cc5c(-c6cccc(F)c6)cncc5[nH]4)c3c2F)c1` [Compound 993, 1-(5-(4-Fluoro-3-(4-(3-fluorophenyl)-1H-pyrrolo[2,3-c]pyridin-2-yl)-1H-indazol-5-yl)pyridin-3-yl)-N,N-dimethylmethanamine], the EC50 was 1.6 µM with SW480 colon cancer cells; greater than 10 µM with IL-6 (THP-1 cells); 2700 nM in test [1]; greater than 10 µM in test [2]; 1.7 µM in test [3]. The inhibition at 10 µM in the test with IL-6 (THP-1 cells) (THP-1, read-out: percentage in parentheses printed under EC50 >10) stood at 18.1%; in test [2] (SW480, read-out: percent inhibition at 10 μM), 46.8%. Further, in test [1], the Emax is 114%.
